# Measurements as given in patent US4238390A, “Synthesis and biological activity of [D-Thr^2, Δ^3 Pro^5 ]-enkephalinamide” (Hoffmann-La Roche Inc., priority 1979, dated 1980).
# pIC50: −log10 of the molar value. Square brackets hold non-standard residues; d marks the D form. Peptide text beside a SMILES is read from it. ΔPro = O=C(O)[C@@H]1C=CCN1
# What was measured:
# [1] = cited from earlier work; for analgesic activity (in words): prior-art report
# 5-HTP Diarrhea = test: Anti-diarrhea activity against 5-HTP diarrhea in CD-1 mice (comparative tests); assay type: in vivo, Male CD-1 mice; conditions: for anti-diarrhea activity (in words): intravenously at a dose of 132 μ moles/kg
# Description: (§1) The anti-diarrhea ED50 values were determined using a computer program "ED50" based on the probit method of D. J. Finney, "Probit Analysis", Cambridge University Press, Cambridge, Great Britain (1971). The average percent inhibition obtained at each dose level of [D-Thr^2, Δ^3 Pro^5 ]-enkephalinamide was used as the response.
# Male CD-1 mice were obtained from Charles River, Inc., Wilmington, Massachusetts, and weighted between 18 and 25 grams at the time of use.
# All compounds with the exception of 5-HTP were dissolved in sterile 0.9% sodium chloride solution. Distilled water was used as the vehicle for 5-HTP. All compounds were administered to the mice using a constant dosage volume of 0.2 ml/20 gms of body weight.
# In the experiment involving naloxone HCl, it or the vehicle were given 5 minutes prior to the administration of β-endorphin.
# The amount of diarrhea produced by 5-HTP was determined as follows. Immediately following the administration of 5-HTP, the mice were individually housed in open-bottomed wire cages of a width and length of 8.5 cm and a height of 7.5 cm, resting on preweighed plastic sheets. The mice were removed from the cages 30 minutes after receiving 5-HTP, and any visible urinary discharge present on the plastic sheet was blotted dry. The sheets were then reweighed. The weight increment was considered to represent fecal weight.
# Guinea Pig Ileum = test: Opiate activity in guinea pig ileum assay; assay type: cell-based
# Description: The opiate activity of [2-D-threonine, 5-(3,4-dehydroproline)]-enkephalinamide was measured according to the method of H. W. Kosterelitz, R. J. Lydon and H. A. Watt, British Journal of Pharmacology, volume 39 (1970), pp. 398-413. The results of the assay are shown in Table II and are compared with the opiate activities for human β-endorphin and Met-enkephaline.
# [2] = tested on: 5-hydroxytryptophan-induced diarrhea; test: Anti-diarrhea activity against 5-hydroxytryptophan-induced diarrhea in CF-1 mice; assay type: in vivo, Male CF-1 mice; conditions: for Mean Fecal Wt. (mg) + S.E.: 30 s before 10 mg/kg 5-HTP ip, 30-minute test period
# Description: Male CF-1 mice were used. The mice were housed at least one week prior to use. At the time of use, the mice were 49 days of age and weighed between 21-25 grams. The mice received, intravenously, vehicle, or the indicated amounts of, [D-Thr^2, Δ^3 Pro^5 ]enkephalinamide dissolved in sterile 0.9% sodium chloride. Thirty seconds later, 10 mg/kg of DL-5-hydroxytryptophan was administered intraperitoneally using distilled water as the vehicle. The mice were then immediately placed in individual open-bottomed wire cages resting on preweighed parafilm sheets. The mice were removed from their cages 30 minutes after receiving the DL-5-hydroxytryptophan. Any fecal material adhering to the sides of the wire cage was collected and placed on the parafilm sheets, and any visible urine on the sheets was blotted dry. The sheets were weighed, and the weight increment was considered to represent the amount of feces discharged during the 30-minute test period.
# as §1
# [3] = iv, 30 seconds prior to 10 mg/kg 5-HTP ip
molecule,measurement,setting,value
"[D-Thr^2, Thz^5 ]-enkephalinamide",analgesic activity (in words),[1],potent analgesic agents
CN1CC[C@]23c4c5ccc(O)c4O[C@H]2[C@@H](O)C=C[C@H]3[C@H]1C5.O=S(=O)(O)O [Morphine Sulfate],prevention of 5-HTP diarrhea (in words),5-HTP Diarrhea; intravenously or subcutaneously administered,effective in preventing this diarrhea
"[D-Ala^2, MePhe^4, MetO^5 -ol] enkephalin",oral activity (in words),"[1]; Roemer et al., Nature 268, 547 (1977)",orally active
same,analgesic activity (in words),[1],most potent analgesic of the group
"[D-Met^2, Thz^5 ]-enkephalinamide",analgesic activity (in words),[1],potent analgesic agents
"[D-Met^2, Pro^5 ]-enkephalinamide [D-Met^2 -Pro^5 -Enkephalin-Amide]",analgesic activity (in words),[1],potent analgesic agent
same,% Inhibition of 5-HTP Diarrhea ± S.E.,5-HTP Diarrhea; 0.20 μmoles/kg iv,1.7 ± 13.2%
same,% Inhibition of 5-HTP Diarrhea ± S.E.,5-HTP Diarrhea; 0.60 μmoles/kg iv,32.3 ± 13.4%
same,% Inhibition of 5-HTP Diarrhea ± S.E.,5-HTP Diarrhea; 1.20 μmoles/kg iv,36.9 ± 11.0%
same,% Inhibition of 5-HTP Diarrhea ± S.E.,5-HTP Diarrhea; 2.40 μmoles/kg iv,66.0 ± 7.6%
same,% Inhibition of 5-HTP Diarrhea ± S.E.,5-HTP Diarrhea; 4.30 μmoles/kg iv,88.6 ± 7.7%
same,Anti-Diarrhea ED50 ± S.E.,5-HTP Diarrhea; [3],1.38 ± 0.310 µmol/kg
Leu-Enkephalin,% Inhibition of 5-HTP Diarrhea ± S.E.,5-HTP Diarrhea; 66 μmoles/kg iv,0.0 ± 13.1%
same,% Inhibition of 5-HTP Diarrhea ± S.E.,5-HTP Diarrhea; 132 μmoles/kg iv,10.4 ± 7.7%
same,anti-diarrhea activity (in words),5-HTP Diarrhea,only weak anti-diarrhea activity
same,Anti-Diarrhea ED50 ± S.E.,5-HTP Diarrhea; [3],> 132 µmol/kg
Met-Enkephalin,pIC50,Guinea Pig Ileum,6.91
same,Relative Potency,Guinea Pig Ileum; human β-endorphin = 100,25
same,% Inhibition of 5-HTP Diarrhea ± S.E.,5-HTP Diarrhea; 66 μmoles/kg iv,21.3 ± 15.9%
same,% Inhibition of 5-HTP Diarrhea ± S.E.,5-HTP Diarrhea; 132 μmoles/kg iv,23.7 ± 9.6%
same,anti-diarrhea activity (in words),5-HTP Diarrhea,only weak anti-diarrhea activity
same,Anti-Diarrhea ED50 ± S.E.,5-HTP Diarrhea; [3],> 132 µmol/kg
Human β-Endorphin,pIC50,Guinea Pig Ileum,7.51
same,Relative Potency,Guinea Pig Ileum; human β-endorphin = 100,100
same,% Inhibition of 5-HTP Diarrhea ± S.E.,5-HTP Diarrhea; 0.43 μmoles/kg iv,25.6 ± 16.1%
same,% Inhibition of 5-HTP Diarrhea ± S.E.,5-HTP Diarrhea; 0.86 μmoles/kg iv,46.6 ± 16.0%
same,% Inhibition of 5-HTP Diarrhea ± S.E.,5-HTP Diarrhea; 1.0 μmoles/kg sc,35.3 ± 14.2%
same,% Inhibition of 5-HTP Diarrhea ± S.E.,5-HTP Diarrhea; 1.73 μmoles/kg iv,58.3 ± 12.6%
same,% Inhibition of 5-HTP Diarrhea ± S.E.,5-HTP Diarrhea; 3.0 μmoles/kg sc,51.7 ± 9.9%
same,% Inhibition of 5-HTP Diarrhea ± S.E.,5-HTP Diarrhea; 3.46 μmoles/kg iv,62.2 ± 10.3%
same,% Inhibition of 5-HTP Diarrhea ± S.E.,5-HTP Diarrhea; 6.0 μmoles/kg sc,61.0 ± 6.9%
same,% Inhibition of 5-HTP Diarrhea ± S.E.,5-HTP Diarrhea; 6.92 μmoles/kg iv,66.4 ± 8.0%
same,% Inhibition of 5-HTP Diarrhea ± S.E.,5-HTP Diarrhea; 9.0 μmoles/kg sc,70.3 ± 8.7%
same,% Inhibition of 5-HTP Diarrhea ± S.E.,5-HTP Diarrhea; 13.84 μmoles/kg iv,92.2 ± 4.8%
same,Anti-Diarrhea ED50 ± S.E.,5-HTP Diarrhea; [3],1.42 ± 0.636 µmol/kg
same,Anti-Diarrhea ED50 ± S.E.,"5-HTP Diarrhea; sc, 1 minute prior to 10 mg/kg 5-HTP ip",2.65 ± 1.425 µmol/kg
"C[C@H](O)[C@@H](NC(=O)[C@@H](N)Cc1ccc(O)cc1)C(=O)NCC(=O)N[C@@H](Cc1ccccc1)C(=O)N1CC=C[C@H]1C(N)=O [[D-Thr^2, Δ^3 Pro^5]-enkephalinamide, [2-D-threonine, 5-(3,4-dehydroproline)]-enkephalinamide] (H-Y[dT]GF[ΔPro]-NH2)",Mean Fecal Wt. (mg) + S.E.,[2]; 1.2 μm/kg iv,117.3 ± 11.06 mg
same,% Inhibition,"[2]; 1.2 μm/kg iv, 5-HTP 10 mg/kg ip",34.6%
same,Mean Fecal Wt. (mg) + S.E.,[2]; 3.60 μm/kg iv,80.1 ± 22.43 mg
same,% Inhibition,"[2]; 3.60 μm/kg iv, 5-HTP 10 mg/kg ip",55.3%
same,Mean Fecal Wt. (mg) + S.E.,[2]; 12.05 μm/kg iv,49.8 ± 14.44 mg
same,% Inhibition,"[2]; 12.05 μm/kg iv, 5-HTP 10 mg/kg ip",72.2%
same,Mean Fecal Wt. (mg) + S.E.,[2]; 24.10 μm/kg iv,37.9 ± 12.81 mg
same,% Inhibition,"[2]; 24.10 μm/kg iv, 5-HTP 10 mg/kg ip",78.9%
same,inhibition of 5-hydroxytryptophan-induced diarrhea (in words),[2]; by intravenous injection,potent agent
same,ED50 μm/kg + S.E.,"[2]; iv, probit method, 5-HTP 10 mg/kg ip",2.9 ± 1.74 μm/kg
same,pIC50,Guinea Pig Ileum,8.03
same,Relative Potency,"Guinea Pig Ileum; human β-endorphin = 100, 5-(3,4-dehydroproline)]-enkephalinamide",330
same,Relative Potency,"Guinea Pig Ileum; human β-endorphin = 100, listed as Tyr-D-Thr-Gly-Phe-Δ Pro-NH2",336
